Data on nine compounds can be found in patent US8703720B2, “Galactoside inhibitors of galectins” (Galecto Biotech AB, priority 2009, dated 2014).

One assay deals with galectin-3 (Homo sapiens (Human), UniProt P17931). In words: Fluorescence polarization-based galectin-3 inhibition assay. The class given is binding. The conditions noted are these: calculated from test by fluorescence polarization at the tested conc. An excerpt: (§1) The known galectin inhibitors galactose and N-acetyllactosamine methyl glycosides were included as reference compounds.
Chain of galectin-3 (P17931 whole entry): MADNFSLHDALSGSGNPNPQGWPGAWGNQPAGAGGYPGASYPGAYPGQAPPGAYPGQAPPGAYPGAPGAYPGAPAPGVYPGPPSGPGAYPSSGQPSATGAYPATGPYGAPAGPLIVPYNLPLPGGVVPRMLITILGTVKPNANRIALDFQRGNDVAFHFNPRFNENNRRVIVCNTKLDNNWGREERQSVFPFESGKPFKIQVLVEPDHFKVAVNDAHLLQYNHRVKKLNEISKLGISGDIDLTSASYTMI
(§2) Identification of the substances was made by HRMS (Micromass Q-tof micro) and NMR (Bruker Ultrashield 400 plus, 400 MHz). Chemical shifts are reported downfield from Me4Si using residual CHD2Cl (7.26 ppm) or CHD2OD (3.35 ppm) as reference. Chemical shifts and coupling constants were obtained from ^1H-NMR and proton resonances were assigned from COSY experiments. Purification was made by RF-HPLC (Beckman, system gold) or flash chromatography, using silica gel (Davisil 35-70 μm, 60 Å). Reactions were followed by TLC (Aluminum sheet, silica gel 60 F254) observed by UV light, H2SO4(aq) or a iso-vanillin/H2SO4/EtOH solution. THF and Et2O were dried over sodium/benzophenone and distilled. CH2Cl2 was dried by molecular sieves (4 Å, 1.6 mm). Other solvents and reagents were commercially available and used without further purifications. Fluorescence polarization experiments were performed on a PolarStar instrument (BMG, Offenburg; Germany). Evaluation of 7, 15-19, and 22 as inhibitors of galectins was performed by use of fluorescence polarization as described in the literature (Sörme et al., 2003a, 2004).

For another assay, the target named is galectin-1 (Homo sapiens (Human), UniProt P09382). In words: Fluorescence polarization-based galectin-1 inhibition assay. It is filed as binding. Conditions: calculated from test by fluorescence polarization at the tested conc.
Chain of galectin-1 (P09382 whole entry, species assumed): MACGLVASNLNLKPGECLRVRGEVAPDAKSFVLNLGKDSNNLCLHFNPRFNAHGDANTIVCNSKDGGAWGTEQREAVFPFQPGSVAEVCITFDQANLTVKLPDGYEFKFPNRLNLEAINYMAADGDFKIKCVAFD
Description: as §1, §2

Another assay has as its system galectins. Conditions: all galectins, cited from earlier work.

Regarding `CCCNC(=O)c1cn([C@H]2[C@@H](O)[C@@H](CO)O[C@@H](O[C@@H]3CCC[C@H](n4cc(C(=O)NCCC)nn4)[C@H]3O)[C@@H]2O)nn1` [Compound 7, ((1R,2R,3S)-2-hydroxy-3-(4-(N-(1-propyl)-carbamoyl)-1H-1,2,3-triazol-1-yl)cyclohexyl) 3-deoxy-(3-(4-(N-(1-propyl)-carbamoyl)-1H-1,2,3-triazol-1-yl))-β-D-galactopyranoside], the Kd at galectin-3 is 0.43 µM.

For `OC[C@H]1O[C@@H](S[C@@H]2CCC[C@H](n3cc(-c4ccccc4F)nn3)[C@H]2O)[C@H](O)[C@@H](n2cc(-c3ccccc3F)nn2)[C@H]1O` [Compound 15, ((1R,2R,3S)-2-hydroxy-3-(4-(2-fluorophenyl)-1H-1,2,3-triazol-1-yl)-cyclohexyl) 3-deoxy-3-(4-(2-fluorophenyl)-1H-1,2,3-triazol-1-yl)-1-thio-β-D-galactopyranoside], the Kd is 1.9 µM at galectin-1 and 0.23 µM on galectin-3.

Regarding `OC[C@H]1O[C@@H](S[C@@H]2CCC[C@H](n3cc(-c4cccc(F)c4)nn3)[C@H]2O)[C@H](O)[C@@H](n2cc(-c3cccc(F)c3)nn2)[C@H]1O` [Compound 16, ((1R,2R,3S)-2-hydroxy-3-(4-(3-fluorophenyl)-1H-1,2,3-triazol-1-yl)-cyclohexyl) 3-deoxy-3-(4-(3-fluorophenyl)-1H-1,2,3-triazol-1-yl)-1-thio-β-D-galactopyranoside], the Kd on galectin-1 was 1.5 µM.

Regarding `OC[C@H]1O[C@@H](S[C@@H]2CCC[C@H](n3cc(-c4ccc(F)cc4)nn3)[C@H]2O)[C@H](O)[C@@H](n2cc(-c3ccc(F)cc3)nn2)[C@H]1O` [Compound 17, ((1R,2R,3S)-2-hydroxy-3-(4-(4-fluorophenyl)-1H-1,2,3-triazol-1-yl)-cyclohexyl) 3-deoxy-3-(4-(4-fluorophenyl)-1H-1,2,3-triazol-1-yl)-1-thio-β-D-galactopyranoside], the values for the Kd on galectin-1 and on galectin-3 were 1.2 µM and 0.21 µM, respectively.

Consider `OC[C@H]1O[C@@H](S[C@@H]2CCC[C@H](n3cc(-c4ccsc4)nn3)[C@H]2O)[C@H](O)[C@@H](n2cc(-c3ccsc3)nn2)[C@H]1O` [Compound 18, ((1R,2R,3S)-2-hydroxy-3-(4-(3-thiopheneyl)-1H-1,2,3-triazol-1-yl)-cyclohexyl) 3-deoxy-3-(4-(3-thienyl)-1H-1,2,3-triazol-1-yl)-1-thio-β-D-galactopyranoside], for which the Kd on galectin-1 was 0.35 µM; on galectin-3 it was 0.55 µM.

Turning to `CCCNC(=O)c1cn(C2CCC[C@@H](S[C@@H]3OC(CO)[C@H](O)[C@H](n4cc(C(=O)NCCC)nn4)C3O)C2O)nn1` (stereo partly drawn) [Compound 19, ((1R,2R,3S)-2-hydroxy-3-(4-(propylcarbamoyl)-1H-1,2,3-triazol-1-yl)-cyclohexyl)-3-deoxy-3-(4-(propylcarbamoyl)-1H-1,2,3-triazol-1-yl)-thio-β-D-galactopyranoside], the Kd was 1.3 µM on galectin-1 and 0.19 µM on galectin-3.

Take `O=C(NC1CCC[C@@H](S[C@@H]2OC(CO)[C@H](O)[C@H](NC(=O)c3ccc(Cl)cc3)C2O)C1O)c1ccc(Cl)cc1` (stereo partly drawn) [Compound 23, ((1R,2R,3S)-2-hydroxy-3-(4-chlorobenzamido)-cyclohexyl)-3-deoxy-3-(4-chlorobenzamido)-thio-β-D-galactopyranoside]: the Kd at galectin-1 was 6.3 µM; at galectin-3, 1.4 µM.

`O=C[C@H](O)[C@@H](O)[C@@H](O)[C@H](O)CO` [D-galactose]: the “affinity relative to lactose” value in the assay on galectins (compared with lactose) is recorded as 50-100 times lower.

For `OC[C@H]1O[C@@H](O[C@H]2[C@H](O)[C@@H](O)C(O)O[C@@H]2CO)[C@H](O)[C@@H](O)[C@H]1O` (some centres unmarked) [lactose], the Kd on galectins is 500 to 1000 µM.

What is called Kd is the equilibrium constant for the complex coming apart.
